“Also recorded” adds a separate entry of the source. Peptide text beside a SMILES is read from it.
Legend:
A. baumannii ATCC 19606 [1] = assay: Skin abscess infection mouse model; format: in vivo, CD-1 mice; settings: for bacterial count, skin abscess (Panel 6b): CD-1 mice; for Anti-infective activity in skin abscess model, in words: single dose at MIC, compared with untreated control and polymyxin B, n = 6
Procedure: A. baumannii ATCC 19606 cells were grown in LB medium to an OD600 = 0.5. Cells were washed twice with sterile phosphate-buffered saline (PBS) (pH 7.4, 13,000 r.p.m. for 2 min) and resuspended to a final concentration of 10^6 (A. baumannii cells) colony-forming units per millilitre (c.f.u. ml^−1). Six-week-old female CD-1 mice from Charles River (stock number 18679700-022) were anaesthetized with isoflurane, and their backs were sterilized and shaved. A superficial linear skin abrasion was made with a needle to damage the stratum corneum and upper layer of the epidermis. An aliquot of 20 μl containing the bacterial load resuspended in PBS was inoculated over the scratched area. Two hours after the infection, peptides diluted in water at their MIC value were administered to the infected area, and the untreated mice were inoculated with the same volume of deionized water. Mice were euthanized, and the area of scarified skin was excised 2 days and 4 days post infection, homogenized using a bead beater for 20 min (25 Hz) and then serially diluted tenfold for quantification of colony-forming units. This quantitative method was used as it has been established to accurately reflect the number of bacteria present in a given infected area. MacConkey agar plates were used as A. baumannii colonies appear purple in this medium and can easily be distinguished from other strains. The experiments were performed with six mice per group. All experiments were performed blindly, and no animal subjects were excluded from the analysis. The skin abscess infection mouse model was approved by the University Laboratory Animal Resources from the University of Pennsylvania (protocol 806763). Statistical significance was determined using one-way analysis of variance (ANOVA) followed by Dunnett’s test in log10-transformed data to mitigate the effect of outliers; P values are presented for each group, with all groups being compared to the untreated control group.

HEK293T cells = settings: 24 h
Procedure, shortened: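 5,000 cells/well seeded a day ahead in DMEM with 10% FBS, then treated with peptides; viability by MTT (0.5 mg/ml, 4 h, 37 °C), formazan in acidic isopropanol read at 570 nm. Concentration causing 50% lysis from non-linear regression; three biological replicates, two technical each.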

A. baumannii ATCC 19606 [2] = assay: Neutropenic thigh infection mouse model; format: in vivo, CD-1 mice; settings: for bacterial count, thigh infection (Panel 6d): neutropenic CD-1 mice
Procedure: Six-week-old female CD-1 mice from Charles River (stock number 18679700-022) were rendered neutropenic by two doses of cyclophosphamide (150 mg kg^−1) applied intraperitoneally with an interval of 72 h. One day after the last dose of cyclophosphamide, the mice were injected intramuscularly in their right thigh with a bacterial load of 10^6 c.f.u. ml^−1 of A. baumannii ATCC 19606 cells. The bacteria had been grown in LB broth, washed twice with PBS (pH 7.4), and resuspended to the desired concentration. Two hours after bacterial injection, peptides resuspended in water were administered intraperitoneally, and the untreated mice were inoculated with the same volume of deionized water. Before each injection, mice were anaesthetized with isoflurane and monitored for respiratory rate and pedal reflexes. Next, we monitored the establishment of the infection and euthanized the mice. The infected area was excised 2 days and 4 days post infection, homogenized using a bead beater for 20 min (25 Hz), and then serially diluted tenfold for quantification of colony-forming units in MacConkey agar plates. The experiments were performed with six mice per group. All experiments were performed blindly, and no animal subjects were excluded from the analysis. The thigh infection mouse model was approved by the University Laboratory Animal Resources from the University of Pennsylvania (protocol 807055). Statistical significance was determined using one-way ANOVA followed by Dunnett’s test in log10-transformed data to mitigate the effect of outliers; P values are presented for each group, with all groups being compared to the untreated control group.

[3] = A. baumannii ATCC 19606, day 2, replicate 1
[4] = A. baumannii ATCC 19606, day 2, replicate 2
[5] = A. baumannii ATCC 19606, day 2, replicate 3
[6] = A. baumannii ATCC 19606, day 2, replicate 4
[7] = A. baumannii ATCC 19606, day 2, replicate 5
[8] = A. baumannii ATCC 19606, day 2, replicate 6
[9] = A. baumannii ATCC 19606, day 4, replicate 1
[10] = A. baumannii ATCC 19606, day 4, replicate 2
[11] = A. baumannii ATCC 19606, day 4, replicate 3
[12] = A. baumannii ATCC 19606, day 4, replicate 4
[13] = A. baumannii ATCC 19606, day 4, replicate 5
[14] = A. baumannii ATCC 19606, day 4, replicate 6

CC[C@H](C)[C@H](NC(=O)[C@@H](N)CC(C)C)C(=O)N[C@H](C(=O)N[C@@H](CS)C(=O)N[C@@H](Cc1ccccc1)C(=O)N[C@@H](Cc1ccccc1)C(=O)N[C@@H](CCCNC(=N)N)C(=O)N[C@@H](CCC(N)=O)C(=O)N[C@@H](CC(C)C)C(=O)N[C@@H](CCCCN)C(=O)N[C@@H](Cc1ccccc1)C(=O)N[C@@H](Cc1c[nH]cn1)C(=O)N[C@@H](Cc1ccccc1)C(=O)O)C(C)C [Megalocerin-1] (H-LIVCFFRQLKFHF-OH; N-terminus and C-terminus assumed)
bacterial count, skin abscess (Panel 6b) (A. baumannii ATCC 19606 [1]; [3]): 800000 | bacterial count, skin abscess (Panel 6b) (A. baumannii ATCC 19606 [1]; [4]): 2000000 | bacterial count, skin abscess (Panel 6b) (A. baumannii ATCC 19606 [1]; [5]): 2000000 | bacterial count, skin abscess (Panel 6b) (A. baumannii ATCC 19606 [1]; [6]): 800000 | bacterial count, skin abscess (Panel 6b) (A. baumannii ATCC 19606 [1]; [7]): 600000 | bacterial count, skin abscess (Panel 6b) (A. baumannii ATCC 19606 [1]; [8]): 1000000 | bacterial count, skin abscess (Panel 6b) (A. baumannii ATCC 19606 [1]; [9]): 1200000 | bacterial count, skin abscess (Panel 6b) (A. baumannii ATCC 19606 [1]; [10]): 1000000 | bacterial count, skin abscess (Panel 6b) (A. baumannii ATCC 19606 [1]; [11]): 400000 | bacterial count, skin abscess (Panel 6b) (A. baumannii ATCC 19606 [1]; [12]): 400000 | bacterial count, skin abscess (Panel 6b) (A. baumannii ATCC 19606 [1]; [13]): 1000000 | bacterial count, skin abscess (Panel 6b) (A. baumannii ATCC 19606 [1]; [14]): 400000 | Anti-infective activity in skin abscess model, in words (A. baumannii ATCC 19606 [1]): inhibited the proliferation of the infection for up to 4 days after treatment | CC50 (HEK293T cells): > 128 µM | TI (therapeutic index) (HEK293T cells): > 16 | bacterial count, thigh infection (Panel 6d) (A. baumannii ATCC 19606 [2]; [3]): 1.2e+008 | bacterial count, thigh infection (Panel 6d) (A. baumannii ATCC 19606 [2]; [4]): 2.0e+007 | bacterial count, thigh infection (Panel 6d) (A. baumannii ATCC 19606 [2]; [5]): 2.2e+008 | bacterial count, thigh infection (Panel 6d) (A. baumannii ATCC 19606 [2]; [6]): 2.0e+008 | bacterial count, thigh infection (Panel 6d) (A. baumannii ATCC 19606 [2]; [7]): 1.2e+008 | bacterial count, thigh infection (Panel 6d) (A. baumannii ATCC 19606 [2]; [8]): 2.8e+008 | bacterial count, thigh infection (Panel 6d) (A. baumannii ATCC 19606 [2]; [9]): 6.0e+008 | bacterial count, thigh infection (Panel 6d) (A. baumannii ATCC 19606 [2]; [10]): 1.0e+009 | bacterial count, thigh infection (Panel 6d) (A. baumannii ATCC 19606 [2]; [11]): 4.0e+007 | bacterial count, thigh infection (Panel 6d) (A. baumannii ATCC 19606 [2]; [12]): 6.0e+007 | bacterial count, thigh infection (Panel 6d) (A. baumannii ATCC 19606 [2]; [13]): 4.0e+007 | bacterial count, thigh infection (Panel 6d) (A. baumannii ATCC 19606 [2]; [14]): 2.0e+007

CC(C)C[C@H](NC(=O)CNC(=O)[C@H](CCCNC(=N)N)NC(=O)[C@H](CCCCN)NC(=O)[C@H](CCCNC(=N)N)NC(=O)[C@@H](N)CCCCN)C(=O)N[C@@H](CCCCN)C(=O)N[C@@H](CC(C)C)C(=O)N[C@@H](C)C(=O)N[C@H](C(=O)N[C@@H](C)C(=O)N[C@@H](CC(C)C)C(=O)N[C@@H](CO)C(=O)N[C@@H](CC(C)C)C(=O)N[C@@H](CC(N)=O)C(=O)N[C@@H](CC(N)=O)C(=O)N[C@@H](CCCCN)C(=O)N[C@@H](Cc1ccccc1)C(=O)O)[C@@H](C)O [Mylodonin-2] (H-KRKRGLKLATALSLNNKF-OH; N-terminus and C-terminus assumed)
bacterial count, skin abscess (Panel 6b) (A. baumannii ATCC 19606 [1]; [3]): 200000 | bacterial count, skin abscess (Panel 6b) (A. baumannii ATCC 19606 [1]; [4]): 200000 | bacterial count, skin abscess (Panel 6b) (A. baumannii ATCC 19606 [1]; [5]): 600000 | bacterial count, skin abscess (Panel 6b) (A. baumannii ATCC 19606 [1]; [6]): 200000 | bacterial count, skin abscess (Panel 6b) (A. baumannii ATCC 19606 [1]; [7]): 400000 | bacterial count, skin abscess (Panel 6b) (A. baumannii ATCC 19606 [1]; [8]): 400000 | bacterial count, skin abscess (Panel 6b) (A. baumannii ATCC 19606 [1]; [9]): 2000 | bacterial count, skin abscess (Panel 6b) (A. baumannii ATCC 19606 [1]; [10]): 2000 | bacterial count, skin abscess (Panel 6b) (A. baumannii ATCC 19606 [1]; [11]): 60000 | bacterial count, skin abscess (Panel 6b) (A. baumannii ATCC 19606 [1]; [12]): 80000 | bacterial count, skin abscess (Panel 6b) (A. baumannii ATCC 19606 [1]; [13]): 200 | bacterial count, skin abscess (Panel 6b) (A. baumannii ATCC 19606 [1]; [14]): 200 | Anti-infective activity in skin abscess model, in words (A. baumannii ATCC 19606 [1]): comparable to that of the widely used antibiotic polymyxin B; also recorded: inhibited the proliferation of the infection for up to 4 days after treatment; also recorded: cleared the infection in some of the mice | CC50 (HEK293T cells): > 128 µM | bacterial count, thigh infection (Panel 6d) (A. baumannii ATCC 19606 [2]; [3]): 1200000 | bacterial count, thigh infection (Panel 6d) (A. baumannii ATCC 19606 [2]; [4]): 2400000 | bacterial count, thigh infection (Panel 6d) (A. baumannii ATCC 19606 [2]; [5]): 1000000 | bacterial count, thigh infection (Panel 6d) (A. baumannii ATCC 19606 [2]; [6]): 1800000 | bacterial count, thigh infection (Panel 6d) (A. baumannii ATCC 19606 [2]; [7]): 200000 | bacterial count, thigh infection (Panel 6d) (A. baumannii ATCC 19606 [2]; [8]): 400000 | bacterial count, thigh infection (Panel 6d) (A. baumannii ATCC 19606 [2]; [9]): 1.2e+007 | bacterial count, thigh infection (Panel 6d) (A. baumannii ATCC 19606 [2]; [10]): 1.2e+008 | bacterial count, thigh infection (Panel 6d) (A. baumannii ATCC 19606 [2]; [11]): 2.0e+007 | bacterial count, thigh infection (Panel 6d) (A. baumannii ATCC 19606 [2]; [12]): 2.0e+007 | bacterial count, thigh infection (Panel 6d) (A. baumannii ATCC 19606 [2]; [13]): 4.0e+007 | bacterial count, thigh infection (Panel 6d) (A. baumannii ATCC 19606 [2]; [14]): 2.0e+007 | Reduction in bacterial counts, 2 days post treatment (A. baumannii ATCC 19606 [2]; neutropenic thigh infection, single intraperitoneal dose, n = 6): as much as polymyxin B; also recorded: most potent activity, which was comparable to that of the positive control antibiotic, polymyxin B

Source: paper PMC11310081, “Deep-learning-enabled antibiotic discovery through molecular de-extinction” (Nature Biomedical Engineering, 2024)
